US20260062443A1 (ALEXION PHARMACEUTICALS, INC., priority 2022, published 2026)

Target: T1, Human complement C1s enzyme (Homo sapiens, UniProt P09871)
T1 sequence (P09871 438-688 limits assumed): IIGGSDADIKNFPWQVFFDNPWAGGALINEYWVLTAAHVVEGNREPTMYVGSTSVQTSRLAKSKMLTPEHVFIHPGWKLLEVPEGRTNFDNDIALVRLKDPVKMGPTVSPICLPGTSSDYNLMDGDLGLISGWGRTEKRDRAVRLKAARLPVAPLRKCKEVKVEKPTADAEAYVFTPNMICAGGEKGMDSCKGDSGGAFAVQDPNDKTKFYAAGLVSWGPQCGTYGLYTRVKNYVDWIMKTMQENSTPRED
T1 sequence (P09871 16-437 partner limits assumed): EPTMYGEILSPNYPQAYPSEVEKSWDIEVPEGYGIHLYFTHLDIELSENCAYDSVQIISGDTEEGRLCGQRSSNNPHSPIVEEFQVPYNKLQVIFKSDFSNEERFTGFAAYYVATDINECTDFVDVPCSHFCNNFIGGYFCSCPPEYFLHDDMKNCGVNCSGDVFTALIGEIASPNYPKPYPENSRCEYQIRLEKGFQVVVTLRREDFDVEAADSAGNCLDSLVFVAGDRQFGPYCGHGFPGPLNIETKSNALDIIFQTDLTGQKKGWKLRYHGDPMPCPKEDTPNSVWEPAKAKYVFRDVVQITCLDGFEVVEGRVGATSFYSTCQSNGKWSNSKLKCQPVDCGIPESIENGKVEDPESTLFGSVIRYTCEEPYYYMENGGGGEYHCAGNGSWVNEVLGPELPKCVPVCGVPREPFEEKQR
Assay: Human C1s enzyme assay
Format: biochemical
Conditions: human complement C1s enzyme 1.16 nM, substrate Z-L-Lys-SBzl 100 μM, 5 min preincubation; read-out: IC50 (Stars), C1s Inhibiting Activity
Method in brief: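 Serum-purified human C1s (1.16 nM final) preincubated 5 min at room temperature with compound in 50 mM Tris, 1 M NaCl, pH 7.5. Z-L-Lys-SBzl and DTNB added at 100 μM each; A405 followed every 30 s for 30 min, and IC50 obtained by nonlinear regression of reaction rates.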

SMILES	IC50
O=C(NCC(=O)N1C[C@H](OC(F)F)C[C@H]1C(=O)NCc1ccn2cnnc2c1)c1ccc2c(c1)Oc1ccccc1S2 [Compound 224, (2S,4R)-N-([1,2,4]triazolo[4,3-a]pyridin-7-ylmethyl)-4-(difluoromethoxy)-1-((phenoxathiine-3-carbonyl)glycyl)pyrrolidine-2-carboxamide]	> 1000 nM
C[C@@]12C[C@@H]1N(C(=O)CNC(=O)CCCOc1ccccc1)[C@H](C(=O)OCc1cc3c(cn1)CNC3)C2 [Compound 66, (2,3-dihydro-1H-pyrrolo[3,4-c]pyridin-6-yl)methyl (1S,3S,5S)-5-methyl-2-((4-phenoxybutanoyl)glycyl)-2-azabicyclo[3.1.0]hexane-3-carboxylate]	> 1000 nM
C[C@@H](NC(=O)[C@@H]1C[C@@H](C2OCCCO2)CN1C(=O)CNC(=O)c1ccc2c(c1)Oc1ccccc1S2)c1cc2cnccc2[nH]1 [Compound 145, (2S,4R)-N-((R)-1-(1H-pyrrolo[3,2-c]pyridin-2-yl)ethyl)-4-(1,3-dioxan-2-yl)-1-((phenoxathiine-3-carbonyl)glycyl)pyrrolidine-2-carboxamide]	< 100 nM
COc1ccc(C(=O)NCC(=O)N2C[C@H](OC(F)F)C[C@H]2C(=O)NCc2cc3cnccc3[nH]2)cc1 [Compound 384, (2S,4R)-N-((1H-pyrrolo[3,2-c]pyridin-2-yl)methyl)-4-(difluoromethoxy)-1-((4-methoxybenzoyl)glycyl) pyrrolidine-2-carboxamide]	> 1000 nM
O=C(NCC(=O)N1C[C@H](OC(F)F)C[C@H]1C(=O)NCc1ccc2cnccc2c1)c1ccc2c(c1)Oc1ccccc1S2 [Compound 236, (2S,4R)-4-(difluoromethoxy)-N-(isoquinolin-6-ylmethyl)-1-((phenoxathiine-3-carbonyl)glycyl)pyrrolidine-2-carboxamide]	> 1000 nM
C[C@@]12C[C@@H]1N(C(=O)CNC(=O)CCCOc1ccccc1)[C@H](C(=O)NCc1cc3cnccc3[nH]1)C2 [Compound 58, (1S,3S,5S)-N-((1H-pyrrolo[3,2-c]pyridin-2-yl)methyl)-5-methyl-2-((4-phenoxybutanoyl)glycyl)-2-azabicyclo[3.1.0]hexane-3-carboxamide]	< 100 nM
C[C@@H](NC(=O)[C@@H]1C[C@]2(C)C[C@@H]2N1C(=O)CNC(=O)c1ccc2oc3ccccc3c2c1)c1cc2cnccc2[nH]1 [Compound 200, (1S,3S,5S)-N-((R)-1-(1H-pyrrolo[3,2-c]pyridin-2-yl)ethyl)-2-((dibenzo[b,d]furan-2-carbonyl)glycyl)-5-methyl-2-azabicyclo[3.1.0]hexane-3-carboxamide]	< 100 nM
O=C(NCC(=O)N1C[C@H](OC(F)F)C[C@H]1C(=O)NCc1cc2cnccc2[nH]1)c1ccc2oc3cccc(F)c3c2c1 [Compound 369, (2S,4R)-N-((1H-pyrrolo[3,2-c]pyridin-2-yl)methyl)-4-(difluoromethoxy)-1-((9-fluorodibenzo[b,d]furan-2-carbonyl)glycyl)pyrrolidine-2-carboxamide]	< 100 nM
O=C(NCC(=O)N1CC2(C[C@H]1C(=O)NCc1cc3cc(Br)ccc3[nH]1)OCCO2)c1ccc2c(c1)Oc1ccccc1S2 [Compound 55, (S)-N-((5-bromo-1H-indol-2-yl)methyl)-7-((phenoxathiine-3-carbonyl)glycyl)-1,4-dioxa-7-azaspiro[4.4]nonane-8-carboxamide]	> 1000 nM
C[C@@H](NC(=O)[C@@H]1CC2(CC2)CN1C(=O)CNC(=O)c1ccc2c(c1)Oc1ccccc1S2)c1cc2cnccc2[nH]1 [Compound 190, (S)-N-((R)-1-(1H-pyrrolo[3,2-c]pyridin-2-yl)ethyl)-5-((phenoxathiine-3-carbonyl)glycyl)-5-azaspiro[2.4]heptane-6-carboxamide]	< 100 nM
Cc1ccc(Oc2cccc(C(=O)NCC(=O)N3CC4(C[C@H]3C(=O)NCc3cc5cnccc5[nH]3)OCCO4)c2)c(F)c1 [Compound 307, (S)-N-((1H-pyrrolo[3,2-c]pyridin-2-yl)methyl)-7-((3-(2-fluoro-4-methylphenoxy)benzoyl)glycyl)-1,4-dioxa-7-azaspiro[4.4]nonane-8-carboxamide]	< 100 nM
C[C@@]12C[C@@H]1N(C(=O)CNC(=O)c1ccc3c(c1)Oc1ccccc1S3)[C@H](C(=O)NCc1cc3c(s1)CCNC3)C2 [Compound 170, (1S,3S,5S)-5-methyl-2-((phenoxathiine-3-carbonyl)glycyl)-N-((4,5,6,7-tetrahydrothieno[3,2-c]pyridin-2-yl)methyl)-2-azabicyclo[3.1.0]hexane-3-carboxamide]	< 100 nM
C[C@@H](NC(=O)[C@@H]1C[C@]2(C)C[C@@H]2N1C(=O)CNC(=O)c1ccc(Oc2ccccc2)cc1)c1cc(B(O)O)cs1 [Compound 163, (5-((R)-1-((1S,3S,5S)-5-methyl-2-((4-phenoxybenzoyl)glycyl)-2-azabicyclo[3.1.0]hexane-3-carboxamido)ethyl)thiophen-3-yl)boronic acid]	> 1000 nM
C[C@@H](NC(=O)[C@@H]1C[C@](F)(CO)CN1C(=O)CNC(=O)c1ccc2c(c1)Oc1ccccc1S2)c1cc2cnccc2[nH]1 [Compound 148, (2S,4R)-N-((R)-1-(1H-pyrrolo[3,2-c]pyridin-2-yl)ethyl)-4-fluoro-4-(hydroxymethyl)-1-((phenoxathiine-3-carbonyl)glycyl)pyrrolidine-2-carboxamide]	< 100 nM
O=C(NCC(=O)N1C[C@H](OC(F)F)C[C@H]1C(=O)NCc1cc2cnccc2[nH]1)c1cccc(Oc2ccc(F)cc2F)c1 [Compound 259, (2S,4R)-N-((1H-pyrrolo[3,2-c]pyridin-2-yl)methyl)-4-(difluoromethoxy)-1-((3-(2,4-difluorophenoxy)benzoyl)glycyl)pyrrolidine-2-carboxamide]	< 100 nM
O=C(CCCOc1ccccc1)NCC(=O)N1CC2(C[C@H]1C(=O)NCc1cc3cnccc3[nH]1)OCCO2 [Compound 20, (S)-N-((1H-pyrrolo[3,2-c]pyridin-2-yl)methyl)-7-((4-phenoxybutanoyl)glycyl)-1,4-dioxa-7-azaspiro[4.4]nonane-8-carboxamide]	< 100 nM
O=C(NCC(=O)N1C[C@H](OC(F)F)C[C@H]1C(=O)NCc1ccc2nc[nH]c2c1)c1ccc2c(c1)Oc1ccccc1S2 [Compound 193, (2S,4R)-N-((1H-benzo[d]imidazol-6-yl)methyl)-4-(difluoromethoxy)-1-((phenoxathiine-3-carbonyl)glycyl)pyrrolidine-2-carboxamide]	> 1000 nM
O=C(NCC(=O)N1C[C@H](OC(F)F)C[C@H]1C(=O)NCc1ccc2c(n1)CCN2)c1ccc2c(c1)Oc1ccccc1S2 [Compound 264, (2S,4R)-4-(difluoromethoxy)-N-((2,3-dihydro-1H-pyrrolo[3,2-b]pyridin-5-yl)methyl)-1-((phenoxathiine-3-carbonyl)glycyl)pyrrolidine-2-carboxamide]	> 1000 nM
O=C(NCC(=O)N1C[C@H](OC(F)F)C[C@H]1C(=O)NCc1cc2cnccc2[nH]1)c1cc(-c2ccc(Cl)cc2)cs1 [Compound 377, (2S,4R)-N-((1H-pyrrolo[3,2-c]pyridin-2-yl)methyl)-1-((4-(4-chlorophenyl)thiophene-2-carbonyl)glycyl)-4-(difluoromethoxy)pyrrolidine-2-carboxamide]	< 100 nM
C[C@@]12C[C@@H]1N(C(=O)CNC(=O)c1ccc3c(c1)Oc1ccccc1S3)[C@H](C(=O)NCc1ccc3nc(N)[nH]c3c1)C2 [Compound 181, (1S,3S,5S)-N-((2-amino-1H-benzo[d]imidazol-6-yl)methyl)-5-methyl-2-((phenoxathiine-3-carbonyl)glycyl)-2-azabicyclo[3.1.0]hexane-3-carboxamide]	< 100 nM
COC[C@@H]1C[C@@H](C(=O)NCc2cc3cnccc3[nH]2)N(C(=O)CNC(=O)c2cccc(Oc3ccc(C)cc3F)c2)C1 (relative stereo) [Compound 318, (2S,4R*)-N-((1H-pyrrolo[3,2-c]pyridin-2-yl)methyl)-1-((3-(2-fluoro-4-methylphenoxy)benzoyl)glycyl)-4-(methoxymethyl)pyrrolidine-2-carboxamide]	< 100 nM
COC[C@@]1(F)C[C@@H](C(=O)N[C@H](C)c2cc3cnccc3[nH]2)N(C(=O)CNC(=O)c2ccc3c(c2)Oc2ccccc2S3)C1 [Compound 173, (2S,4R)-N-((R)-1-(1H-pyrrolo[3,2-c]pyridin-2-yl)ethyl)-4-fluoro-4-(methoxymethyl)-1-((phenoxathiine-3-carbonyl)glycyl)pyrrolidine-2-carboxamide]	< 100 nM
C[C@@]12C[C@@H]1N(C(=O)CNC(=O)c1ccc(Oc3ccccc3)cc1)[C@H](C(=O)NCc1cc3cnccc3[nH]1)C2 [Compound 28, (1S,3S,5S)-N-((1H-pyrrolo[3,2-c]pyridin-2-yl)methyl)-5-methyl-2-((4-phenoxybenzoyl)glycyl)-2-azabicyclo[3.1.0]hexane-3-carboxamide]	< 100 nM
